Counter-ions that a name gives are not always drawn.

The values that follow come from patent publication EP0517371B1, “Hair growth composition containing citric acid esters” (UNILEVER PLC, priority 1991, dated 1992).

The test system of this assay is albino rats. As to the kind of experiment: Rat hair growth trial (plucked hair at end of G-2 anagen after topical application). The class given is in vivo. The settings on record: for LENGTH (length of hair) / WT/AREA (weight of hair per unit area of skin): G-2 anagen, topical twice daily, 6 rats per group, TBC 5% by weight in vanishing cream base, minoxidil 2% by weight in 65% v/v aqueous ethanol. As for the experimental part:
The effect of esters of citric acid on hair growth was assessed using albino rats as an animal model. The rats were chosen from as few litters as possible and were each approximately 27-30 days of age at the start of the trial. Each rat was housed individually to prevent licking.
In each comparison, 6 rats were used in each group and hair growth was assessed as follows: A small patch of normal skin (3cm x 3cm) on the upper back of each rat was selected and hairs were plucked from this area at the start of the trial (G-1 telogen). Test materials or control in a vanishing cream base or an alcoholic lotion, as appropriate, were then applied twice daily until the end of the next anagen, i.e. after a further 20 days from the start of trial (G-2 anagen). Each application of lotion amounted to about 50 mg.
At the end of G2-anagen, hair was plucked again from the same dorsal area, and this was used for measurement of: • i) weight of hair per unit area of skin, • ii) length of hair, and • iii) diameter of hair measured microscopically.
This procedure was employed to compare the effect of topical application to the rat model of a known hair growth promoter, namely minoxidil and a test material as used in accordance with the invention, namely tri-n-butyl citrate.
In this experiment minoxidil was employed at a concentration of 2% by weight in 65% v/v aqueous ethanol and tri-n-butyl citrate was employed at a concentration of 5% by weight in a vanishing cream base.

Setting [1] is: end of G-2 anagen, versus control (vanishing cream base).

As to `Nc1cc(N2CCCCC2)nc(N)[n+]1[O-]` [Minoxidil, reference compound], the “LENGTH (length of hair)” value was determined as 8.85 ± 0.42 mm and the “WT/AREA (weight of hair per unit area of skin)” value is on record as 16.27 ± 0.97 mg/cm2.

Regarding `CCCCOC(=O)CC(O)(CC(=O)OCCCC)C(=O)OCCCC` [TBC, tri-n-butyl citrate], the “LENGTH (length of hair)” value is on record as 10.74 ± 1.16 mm and the “WT/AREA (weight of hair per unit area of skin)” value turned out to be 17.24 ± 0.97 mg/cm2. In addition, under setting [1], the “hair diameter, comparison in words” value was “similar”; the “length of hair, comparison in words” value is “marked increase over both control and minoxidil”; the “weight of plucked hair per unit area, comparison in words” value was “marked increase over the control”.
